Experimental data published in patent publication US7432045B2 (priority 2003, dated 2008).
Square brackets hold non-standard residues; d marks the D form. Peptide text beside a SMILES is read from it. * marks the point of attachment. Biotin = O=C1N[C@H]2[C@H](CS[C@H]2CCCCC(=O)*)N1; Ahx = NCCCCCC(=O)O

Columns and labels:
[1] = test system: HSV-1 KOS mutant hrR3; test: LacZ+ virus (hrR3) entry assay with pre-adsorbed virus (entry block); format: cell-based; conditions: FIG. 7B; read-out: inhibition of entry of pre-adsorbed virus IC50
Procedure: LacZ^+ virus (hrR3) entry assay: Confluent Vero cell cultures in 96-well microtiter plates were switched to Hepes-buffered serum-free DMEM, cooled on ice to 4° C. for 30 min, and infected with hrR3 for 1 hour at 4° C. in 40 μL of medium. Unattached virus was removed by rinsing with ice-cold medium. Treatments with antiviral peptide SEQ ID NO:1, referred to as EB, or a control peptide which comprised the RRKK tetra-peptide (SEQ ID NO:16) attached to a scrambled version of the membrane transiting peptide RRKKLAALPLVLAAPLAVLA (SEQ ID NO:17) (referred to as EBX), or mock-treatments with peptide-free medium were carried out in serum-free DMEM as indicated. Virus entry was initiated by transferring cultures to 37° C. To inactivate any remaining extracellular virus, cultures were rinsed with PBS and exposed to low pH citrate buffer (40 mM citric acid, 10 mM KCl, 135 mM NaCl, pH 3.0, according to Highlander et al., J. Virol. 61:3356 (1987), for 1 min at 23° C. The citrate was rinsed off with PBS and cultures were maintained in serum-supplemented DMEM until they were fixed with 0.5% gluteraldehyde in 5×PBS for 30 min at 23° C., stained for β-galactosidase activity for 1 hour or overnight at 23° C. with X-gal (Fisher Biotech; BP1615-1) in 1×PBS containing […], 1.3 mM K4Fe(CN)6, and 1.3 mM K3Fe(CN)6, and scored for the presence of blue […] cells.
In these studies, the hrR3 virus was pre-adsorbed to cells for 1 hour at 4° C. before ice cold 25 μM EB or EBX were added in serum-free DMEM. After an additional 1 hour at 4° C., cultures were shifted to 37° C. to initiate virus entry. At 15 min intervals following the temperature shift, any virus remaining outside the cells was inactivated by washing the cultures with low pH citrate buffer. Cultures were then rinsed and returned to peptide-free serum-supplemented DMEM until they were fixed and stained for β-galactosidase 8 hours after the temperature shift.
Two assays were used to assess the ability of the TAT peptides to inhibit infection of Vero cells with the hrR3 virus. In both assays, the virus was preadsorbed to cells at 4° C. and entry was initiated in the presence of peptide by shifting the cultures to a permissive temperature (30-37° C.). One hour later, the peptide was rinsed off. The entry blocking activity was measured in half of the cultures, in which any extracellular virus remaining after the peptide treatment was inactivated with low pH citrate buffer. The rest of the cultures were exposed to PBS instead of citrate buffer and used to measure virus inactivation. Virus inactivation depended on persistent effects of the peptide lasting for a period of eight hours. At the end of that period, all cultures were fixed and infected cells were detected by staining with X-gal.
Virus (m.o.i.=0.025) was preadsorbed to Vero cells for 1 h at 4° C. before cultures were exposed to TAT-C (FIG. 15A), bTAT-9X (FIG. 15B), or n50,51TAT-C (FIGS. 15C, 15D) for 1 h at 33 (FIGS. 15A, 15B), 31 (FIG. 15C), or 37° C. (FIG. 15D). […] Inhibition of entry was measured in the citrate-treated cultures, in which any remaining external virus was inactivated immediately following exposure to peptide (●). Persistent virus inactivation lasting, at least in part, for the 8 h period following exposure to peptide, was measured in the PBS-treated cultures (◯). The IC50s measured in these experiments are included in Table 5.

[2] = test system: cornea; test: In vivo peptide toxicity, cornea; set-up: species or system BALB/C mice
Procedure: (i) Cornea: Four-6-week-old female BALB/C mice (Harlan Sprague Dawley, Indianapolis, Ind.) were anesthetized by halothane inhalation (3-5%). A 2.0 μL drop of serum-free 5×DMEM solution containing 6.1 mM EB, 6.1 mM EBX, 7.5 mM TAT-C, 7.5 mM n50,51 TAT-C, 7.5 mM TAT-Cd, or 11.2 mM bHOMd or serum-free DMEM only (control) was then placed on the cornea and the mice were returned to their cages. Each group consisted of 5 mice, except for 11.2 mM bHOMd, and 7.5 mM TAT-Cd, which consisted of 4 mice. Only the right eye in each mouse received the peptide. Treatments were given 4 times per day at least 2 hrs apart for 7 days. On days 1, 5, and 7, the mice were examined microscopically for evidence of blepharitis, punctate keratopathy, dendrite ulceration and geographic ulceration. Damage to the corneal epithelium was assessed by staining with 1.0% […] and examination under a microscope with blue light. Blepharitis was scored: 1+ for noticeable puffy eyelids, 2+ for puffy eyelids with moderate crusting, 3+ for eye 50% swollen shut with severe crusting, and 4+ for eye totally swollen and crusted shut (Brandt et al., 1992). Punctate keratopathy, dendrite ulceration, and geographic ulceration were scored: 1+ for <25% of the cornea involved, 2+ for 25-50% involved, 3+ for 50-75% involved, and 4+ for >75% involved. The mean disease score for each group of mice on each day was calculated by the sum of disease scores in each group on each day divided by the numbers of mice in that group. On day 7, following the last treatment, the mice were sacrificed and the eyes were removed, fixed in 10% formalin, embedded in paraffin, sectioned (5μ each), and stained with hematoxylin and eosin as we have described previously (Brandt et al., 1996). Sections were then examined for evidence of damage to the cornea, sclera, lens, and retina.

[3] = test system: Vero, HeLa, CV-1PD, TM-1, DP-9, CEMx174, NIKS, W12E cells; test: MTS assay, eight cell lines; conditions: eight cell lines
[4] = test system: Vero cells
[5] = test system: influenza A virus (Sydney 05/97,H3N2)
[6] = in vitro; conditions: African green monkey
[7] = test system: MDCK cells
[8] = test system: HSV-1 KOS; test: Plaque reduction assay; format: cell-based
Procedure: Cell culture and virus: The procedures for growing Vero cells and preparing high titer stocks of HSV-1 KOS as described in Grau et al., Invest. Ophthal. and Vis. Sci. 30: 2474 (1989) were utilized. Vero cells were maintained in carbonate-buffered DMEM supplemented with 5% calf serum and 5% fetal bovine serum (regular medium). For some studies, cells were switched to serum-free DMEM buffered with 25 mM HEPES (pH 7.4) and allowed to adapt to that medium for 30 min prior to experimental treatments. Vero cells were seeded into wells (0.28 cm^2) of microtiter plates either at 3.5×10^4 cells/well for use 1 day later (8×10^4 cells/well) or at 1×10^4 cells/well for use 3 days later (2×10^5 cells/well).
Plaque reduction assay: Confluent Vero cell cultures in microtiter plates were infected for 1 hour at 37° C. in 40 μL of medium. Except where indicated, peptide treatments in 40 μL of medium lasted from 1 hour before through 1 hour after infection. At the end of the adsorption period, the cultures were re-fed with 100 μL of regular medium. Plaque formation was scored 2 days later and the number of plaques scored per well was normalized to the number counted in the absence of peptide. Using an ocular micrometer, plaque size (π/2×L×S) was determined by measuring the largest plaque diameter (L) and the diameter at a 90° angle to that (S). The size of each of the first 40 scored plaques was measured except when a plaque included less than 10 rounded cells or touched the side of the well.

[9] = test system: HSV-1 KOS; conditions: data not shown

## CC(C)C[C@H](NC(=O)[C@H](CCCCN)NC(=O)[C@H](CCCCN)NC(=O)[C@H](CCCNC(=N)N)NC(=O)[C@@H](N)CCCNC(=N)N)C(=O)N[C@@H](C)C(=O)N[C@@H](C)C(=O)N[C@@H](CC(C)C)C(=O)N1CCC[C@H]1C(=O)N[C@@H](CC(C)C)C(=O)N[C@H](C(=O)N[C@@H](CC(C)C)C(=O)N[C@@H](C)C(=O)N[C@@H](C)C(=O)N1CCC[C@H]1C(=O)N[C@@H](CC(C)C)C(=O)N[C@@H](C)C(=O)N[C@H](C(=O)N[C@@H](CC(C)C)C(=O)N[C@@H](C)C(=O)O)C(C)C)C(C)C [EBX, RRKKLAALPLVLAAPLAVLA, reference compound] (H-RRKKLAALPLVLAAPLAVLA-OH)
[1]
  IC50: ~100 µM
[2]; mouse, in vivo
  corneal pathology: no evidence of corneal pathology
[3]
  cytotoxicity to cells (MTS), overall: generally not cytotoxic
[4]
  cytotoxic effects: No cytotoxic effects

## CC[C@H](C)[C@H](NC(=O)[C@H](CCCCN)NC(=O)[C@@H](NC(=O)[C@H](CCC(N)=O)NC(=O)[C@H](CCCNC(=N)N)NC(=O)CCCCCNC(=O)CCCC[C@@H]1SC[C@@H]2NC(=O)N[C@@H]21)[C@@H](C)CC)C(=O)N[C@@H](Cc1c[nH]c2ccccc12)C(=O)N[C@@H](Cc1ccccc1)C(=O)N1CCC[C@H]1C(=O)N[C@@H](CC(N)=O)C(=O)N[C@@H](CCCNC(=N)N)C(=O)N[C@@H](CCCNC(=N)N)C(=O)N[C@@H](CCSC)C(=O)N[C@@H](CCCCN)C(=O)N[C@@H](Cc1c[nH]c2ccccc12)C(=O)N[C@@H](CCCCN)C(=O)N[C@@H](CCCCN)C(=O)N1CCC[C@H]1C(=O)NCC(=O)N[C@@H](Cc1ccc(O)cc1)C(=O)N[C@@H](C)C(=O)NCC(=O)N[C@@H](C)C(=O)N[C@H](C(=O)N[C@H](C(=O)N[C@@H](CC(N)=O)C(=O)N[C@@H](CC(=O)O)C(=O)N[C@@H](CC(C)C)C(=O)O)C(C)C)C(C)C [bHOM-9, b - RQIKIWFPNRRMKWKK-9] ({Biotin-Ahx}-RQIKIWFPNRRMKWKKPGYAGAVVNDL-OH)
[5]
  antiviral effect against influenza A virus versus cytotoxic effects: antiviral and cytotoxic effects were inseparable
[6]
  IC50: 50 µM

## CC(C)C[C@H](NC(=O)[C@H](C)NC(=O)[C@H](CCCCN)NC(=O)[C@H](CC(C)C)NC(=O)[C@H](C)NC(=O)[C@H](CC(C)C)NC(=O)[C@H](CCCCN)NC(=O)[C@H](CC(C)C)NC(=O)[C@H](C)NC(=O)[C@H](CC(C)C)NC(=O)[C@H](CCCCN)NC(=O)CCCCCNC(=O)CCCC[C@@H]1SC[C@@H]2NC(=O)N[C@@H]21)C(=O)N[C@@H](CCCCN)C(=O)N[C@@H](C)C(=O)N[C@@H](C)C(=O)N[C@@H](CC(C)C)C(=O)N[C@@H](CCCCN)C(=O)N[C@@H](CC(C)C)C(=O)N[C@@H](C)C(N)=O [bKLA, b - KLALKLALKALKAALKLA-amide]
[7]
  cytotoxic effects (trypan blue staining): No cytotoxic effects
[6]
  IC50: 15 µM

## CC[C@@H](C)[C@@H](NC(=O)[C@@H](CCCCN)NC(=O)[C@H](NC(=O)[C@@H](CCC(N)=O)NC(=O)[C@@H](CCCNC(=N)N)NC(=O)CCCCCNC(=O)CCCC[C@@H]1SC[C@@H]2NC(=O)N[C@@H]21)[C@H](C)CC)C(=O)N[C@H](Cc1c[nH]c2ccccc12)C(=O)N[C@H](Cc1ccccc1)C(=O)N1CCC[C@@H]1C(=O)N[C@H](CC(N)=O)C(=O)N[C@H](CCCNC(=N)N)C(=O)N[C@H](CCCNC(=N)N)C(=O)N[C@H](CCSC)C(=O)N[C@H](CCCCN)C(=O)N[C@H](Cc1c[nH]c2ccccc12)C(=O)N[C@H](CCCCN)C(=O)N[C@H](CCCCN)C(N)=O [bHOMd, b - RQIKIWFPNRRMKWKK-amide] ({Biotin-Ahx}-[dR][dQ][dI][dK][dI][dW][dF][dP][dN][dR][dR][dM][dK][dW][dK][dK]-NH2)
[2]; calcein staining
  punctate keratopathy: very mild punctate keratopathy
[2]; four times a day for seven days
  blepharitis: mild blepharitis
[5]
  antiviral effect against influenza A virus versus cytotoxic effects: blocks influenza A virus in the absence of cytotoxic effects
[7]
  cytotoxic effects (trypan blue staining): No cytotoxic effects

## NH2 - RRKKAAVALLAVLLALLAPP-COOH (H-RRKKAAVALLAVLLALLAPP-OH) [EBPP]
[8]
  antiviral activity compared to EB: twice as active
[9]
  activity compared to EB in yield reduction assay: twice as active
